Literature values, collected in patent publication US20230165893A1, “TREATMENT OF VIRAL INFECTIONS” (SULFAGENIX, INC., priority 2020, published 2023).

Conditions: pure elemental sulfur, stated as a contrast, no source given

## S1SSSSSSS1 [alpha-elemental sulfur, elemental alpha sulfur]
  solubility in carbon disulfide (in words): completely soluble
